Like-named read-outs stand apart in the source and are kept apart here.
What was measured:
[1] = GC-MS analysis of perfume leaked out of the capsules during one month storage in concentrated fabric softener; format: physicochemical; details: for Percentage of ingredient having leaked out of the capsules during one month storage, % In fabric softener 37° C.: perfume of Example 6 encapsulated per Example 2, capsules at 1.25%; for Percentage of ingredient having leaked out of the capsules during one month storage, % In fabric softener 37° C. / Percentage of perfume having leaked out of the capsules upon one month storage, % In fabric softener at 37° C.: one month at 37° C.; for Percentage of perfume having leaked out of the capsules upon one month storage, % In fabric softener at 22° C. / Percentage of perfume having leaked out of the capsules upon one month storage, % In fabric softener at 37° C.: perfume of Example 9 encapsulated per Example 2, capsules at 1.25%; for Percentage of perfume having leaked out of the capsules upon one month storage, % In fabric softener at 22° C.: one month at 22° C.
Procedure: The concentrated fabric softener base was prepared by admixing the ingredients listed in Table 4, in the amounts indicated.

[2] = GC-MS analysis of perfume leaked out of the capsules during one month storage in concentrated liquid detergent; format: physicochemical; details: for Percentage of ingredient having leaked out of the capsules during one month storage, % In concentrated Liquid Detergent 22° C. / Percentage of ingredient having leaked out of the capsules during one month storage, % In concentrated Liquid Detergent 37° C.: perfume of Example 6 encapsulated per Example 2, capsules at 1.25% in Tide 2x Concentrated HE Free; for Percentage of ingredient having leaked out of the capsules during one month storage, % In concentrated Liquid Detergent 22° C. / Percentage of perfume having leaked out of the capsules upon one month storage, % In Concentrated Liquid Detergent at 22° C.: one month at 22° C.; for Percentage of ingredient having leaked out of the capsules during one month storage, % In concentrated Liquid Detergent 37° C. / Percentage of perfume having leaked out of the capsules upon one month storage, % In Concentrated Liquid Detergent at 37° C.: one month at 37° C.; for Percentage of perfume having leaked out of the capsules upon one month storage, % In Concentrated Liquid Detergent at 22° C. / Percentage of perfume having leaked out of the capsules upon one month storage, % In Concentrated Liquid Detergent at 37° C.: perfume of Example 9 encapsulated per Example 2, capsules at 1.25% in Tide 2x Concentrated HE Free
Description: The concentrated liquid detergent base was a commercially available Tide® 2× Concentrated HE Free of perfume & dye (trademark of Procter and Gamble, USA).
The concentrated liquid detergent base was the commercially available Tide® 2× Concentrated HE Free of perfume & dye (trademark of Procter and Gamble, USA).

[3] = LogP of the perfume ingredients
[4] = ingredients of the perfume of Example 6 (Table 1)
[5] = ingredients of the perfume of Example 9 (Table 9)

Row | Compound | Percentage of ingredient having leaked out of the capsules during one month storage, % In fabric softener 37° C. [1] [%] | Percentage of ingredient having leaked out of the capsules during one month storage, % In concentrated Liquid Detergent 22° C. [2] [%] | Percentage of ingredient having leaked out of the capsules during one month storage, % In concentrated Liquid Detergent 37° C. [2] [%] | LogP [3, 4] | Percentage of perfume having leaked out of the capsules upon one month storage, % In fabric softener at 22° C. [1] [%] | Percentage of perfume having leaked out of the capsules upon one month storage, % In fabric softener at 37° C. [1] [%] | Percentage of perfume having leaked out of the capsules upon one month storage, % In Concentrated Liquid Detergent at 22° C. [2] [%] | Percentage of perfume having leaked out of the capsules upon one month storage, % In Concentrated Liquid Detergent at 37° C. [2] [%] | LogP [3] | LogP [3, 5]
1 | CC(C)=CCCC1=CCC(C)(C=O)CC1 (centres unmarked) [1-Methyl-4-(4-methyl-3-pentenyl)-3-cyclohexene-1-carbaldehyde] | 1 | 2 | 20 |  |  |  |  |  | 5.19 | 
2 | CC(C=O)Cc1ccc(C(C)(C)C)cc1 (centres unmarked) [Lilial ®, 3-(4-tert-butylphenyl)-2-methylpropanal] | 3 | 1 | 14 |  | 0 | 7 | 0 | 18 | 4.36 | 4.36
3 | CCC(=O)OC1CC2CC1C1CC=CC21 (centres unmarked) [Verdyl propionate] |  |  |  |  | 5 | 8 | 5 | 51 |  | 3.34
4 | CC(=O)O[C@@H]1C[C@H]2CC[C@]1(C)C2(C)C (racemic) [Isobornyl acetate] |  |  |  |  | 4 | 12 | 4 | 21 | 3.86 | 

More lines, now with the values ahead:

Row | Percentage of ingredient having leaked out of the capsules during one month storage, % In fabric softener 37° C. [1] [%] | Percentage of ingredient having leaked out of the capsules during one month storage, % In concentrated Liquid Detergent 22° C. [2] [%] | Percentage of ingredient having leaked out of the capsules during one month storage, % In concentrated Liquid Detergent 37° C. [2] [%] | LogP [3, 4] | Percentage of perfume having leaked out of the capsules upon one month storage, % In fabric softener at 22° C. [1] [%] | Percentage of perfume having leaked out of the capsules upon one month storage, % In fabric softener at 37° C. [1] [%] | Percentage of perfume having leaked out of the capsules upon one month storage, % In Concentrated Liquid Detergent at 22° C. [2] [%] | Percentage of perfume having leaked out of the capsules upon one month storage, % In Concentrated Liquid Detergent at 37° C. [2] [%] | LogP [3] | LogP [3, 5] | Compound
5 | 2 | 1 | 6 | 5.39 |  |  |  |  |  |  | (1′R,E)-3,3-dimethyl-5-(2′,2′,3′-trimethyl-3′-cyclopenten-1′-yl)-4-penten-2-ol [Polysantol ®]
6 |  |  |  |  | 46 | 98 | 46 | 100 | 3.67 |  | C=CCOC(=O)CCCCCC [Allyl heptanoate]
7 | 9 | 1 | 27 |  |  |  |  |  | 4.45 |  | C=CCCC(=O)C1=CCCC(C)(C)C1 [Neobutenone ® alpha, 1-(5,5-dimethyl-1-cyclohexen-1-yl)-4-penten-1-one]
8 | 4 | 1 | 4 | 4.71 | 2 | 4 | 2 | 9 |  | 4.71 | CC(=O)C1(C)CC2=C(CCCC2(C)C)CC1C (centres unmarked) [Iso E super ®, 1-(octahydro-2,3,8,8-tetramethyl-2-naphtalenyl)-1-ethanone]
9 | 5 | 1 | 14 | 3.76 |  |  |  |  |  |  | CC(=O)OC1CC2CC1C1CC=CC21 (centres unmarked) [Verdylate]
10 | 5 | 1 | 11 |  |  |  |  |  | 4.42 |  | CC(=O)OC1CCC(C(C)(C)C)CC1 (centres unmarked) [Lorysia ®, 4-(1,1-dimethylethyl)-1-cyclohexyl acetate]

Reference: patent US8426353B2, “Process for preparing polyurea microcapsules” (Firmenich SA, priority 2008, dated 2013)
